Target: T1, human FXR (NR1H4) (Homo sapiens, UniProt Q96RI1)
T1 construct: host or cells: CHO (Chinese hamster ovary) cells
T1 sequence (Q96RI1 1-486): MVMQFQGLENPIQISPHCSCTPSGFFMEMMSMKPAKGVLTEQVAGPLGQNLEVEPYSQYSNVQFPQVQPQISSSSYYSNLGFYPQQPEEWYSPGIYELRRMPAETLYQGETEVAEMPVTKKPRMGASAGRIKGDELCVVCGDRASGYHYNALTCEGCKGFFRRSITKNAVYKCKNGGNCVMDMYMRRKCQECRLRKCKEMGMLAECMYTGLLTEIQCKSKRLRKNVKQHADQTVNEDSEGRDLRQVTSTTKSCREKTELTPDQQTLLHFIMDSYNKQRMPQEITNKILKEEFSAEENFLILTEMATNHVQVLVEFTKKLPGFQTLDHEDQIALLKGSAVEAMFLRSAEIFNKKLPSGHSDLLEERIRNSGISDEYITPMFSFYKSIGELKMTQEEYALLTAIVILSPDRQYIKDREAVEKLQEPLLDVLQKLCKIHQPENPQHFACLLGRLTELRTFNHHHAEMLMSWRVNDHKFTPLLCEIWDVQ
Assay: Human FXR (NR1H4) Assay (Gal4 promoter driven luciferase reporter, Indigo Bioscience kit IB00601)
Assay type: cell-based
Details: CHO reporter cells expressing human NR1H4; for EC50: FXR agonistic potency range, 22 hours incubation; for Efficacy (%): normalized to CDCA set as 100%
Source text: Assays Human FXR (NR1H4) Assay Determination of a ligand mediated Gal4 promoter driven transactivation to quantify ligand binding mediated activation of FXR. FXR Reporter Assay kit purchased from Indigo Bioscience (Catalogue number: IB00601) to determine the potency and efficacy of compound developed by Enanta that can induce FXR activation. The principal application of this reporter assay system is to quantify functional activity of human FXR. The assay utilizes non-human mammalian cells, CHO (Chinese hamster ovary) cells engineered to express human NR1H4 protein (referred to as FXR). Reporter cells also incorporate the cDNA encoding beetle luciferase which catalyzes the substrates and yields photon emission. Luminescence intensity of the reaction is quantified using a plate-reading luminometer, Envision. Reporter Cells include the luciferase reporter gene functionally linked to an FXR responsive promoter. Thus, quantifying changes in luciferase expression in the treated reporter cells provides a sensitive surrogate measure of the changes in FXR activity. […] The assay is according to the manufacturer's instructions. In brief, the assay was performed in white, 96 well plates using final volume of 100 ul containing cells with different doses of compounds. Retrieve Reporter Cells from −80° C. storage. Perform a rapid thaw of the frozen cells by transferring a 10 ml volume of 37° C. cell recovery medium into the tube of frozen cells. Recap the tube of Reporter Cells and immediately place it in a 37° C. water bath for 5-10 minutes. Retrieve the tube of Reporter Cell Suspension from the water bath. Sanitize the outside surface of the tube with a 70% alcohol swab, and then transfer it into the cell culture hood. Dispense 90 μl of cell suspension into each well of the 96-well Assay Plate. Transfer the plate into 37° C. incubator, allowing the cells adherent to the bottom of the well. Dilute compounds in Dilution Plate (DP), and administrate to cells at Assay Plate (AP). DMSO content of the samples was kept at 0.2%. Cells were incubated for additional 22 hours before luciferase activities were measured. Thirty minutes before intending to quantify FXR activity, remove Detection Substrate and Detection Buffer from the refrigerator and place them in a low-light area so that they may equilibrate to room temperature. Remove the plate's lid and discard all media contents by ejecting it into an appropriate waste container. Gently tap the inverted plate onto a clean absorbent paper towel to remove residual droplets. Cells will remain tightly adhered to well bottoms. Add 100 μl of luciferase detection reagent to each well of the assay plate. Allow the assay plate to rest at room temperature for at least 5 minutes following the addition of LDR. Set the instrument (Envision) to perform a single 5 second “plate shake” prior to reading the first assay well. Read time may be 0.5 second (500 mSec) per well.

## CC[C@H]1[C@@H](O)[C@@H]2[C@H](CC[C@]3(C)[C@@H]([C@H](C)Cc4nnc(NS(=O)(=O)N(C)C)[nH]4)CC[C@@H]23)[C@@]2(C)CC[C@@H](O)C[C@@H]12 [Example 8]
  EC50: 100 to 1000 nM
  Efficacy (%): 234%

## CC[C@H]1[C@@H](O)[C@@H]2[C@H](CC[C@]3(C)[C@@H]([C@H](C)CCc4nnc(N)o4)CC[C@@H]23)[C@@]2(C)CC[C@@H](O)C[C@@H]12 [Example 9]
  EC50: 100 to 1000 nM
  Efficacy (%): 222%

## CC[C@H]1[C@@H](O)[C@@H]2[C@H](CC[C@]3(C)[C@@H]([C@H](C)CCc4nnc(C5CC5)o4)CC[C@@H]23)[C@@]2(C)CC[C@@H](O)C[C@@H]12 [Example 10]
  EC50: 100 to 1000 nM
  Efficacy (%): 304%

## CC[C@H]1[C@@H](O)[C@@H]2[C@H](CC[C@]3(C)[C@@H]([C@H](C)CCc4nc(C5CC5)no4)CC[C@@H]23)[C@@]2(C)CC[C@@H](O)C[C@@H]12 [Example 11]
  EC50: 1000 to 10000 nM
  Efficacy (%): 239%

## CC[C@H]1[C@@H](O)[C@@H]2[C@H](CC[C@]3(C)[C@@H]([C@H](C)CCc4nnc(C5CC5)s4)CC[C@@H]23)[C@@]2(C)CC[C@@H](O)C[C@@H]12 [Example 12]
  EC50: 100 to 1000 nM
  Efficacy (%): 369%

## CC[C@H]1[C@@H](O)[C@@H]2[C@H](CC[C@]3(C)[C@@H]([C@H](C)CCc4nnc(C5CC5)[nH]4)CC[C@@H]23)[C@@]2(C)CC[C@@H](O)C[C@@H]12 [Example 13]
  EC50: 1000 to 10000 nM
  Efficacy (%): 168%

## CC[C@H]1[C@@H](O)[C@@H]2[C@H](CC[C@]3(C)[C@@H]([C@H](C)CCc4nnc(N(C)C)o4)CC[C@@H]23)[C@@]2(C)CC[C@@H](O)C[C@@H]12 [Example 14]
  EC50: 100 to 1000 nM
  Efficacy (%): 265%

## CC[C@H]1[C@@H](O)[C@@H]2[C@H](CC[C@]3(C)[C@@H]([C@H](C)CCc4nnc(-c5ccccc5)s4)CC[C@@H]23)[C@@]2(C)CC[C@@H](O)C[C@@H]12 [Example 15]
  EC50: 100 to 1000 nM
  Efficacy (%): 362%

## CC[C@H]1[C@@H](O)[C@@H]2[C@H](CC[C@]3(C)[C@@H]([C@H](C)CCc4nnc(Cc5ccccc5)s4)CC[C@@H]23)[C@@]2(C)CC[C@@H](O)C[C@@H]12 [Example 16]
  EC50: 100 to 1000 nM
  Efficacy (%): 378%

## CC[C@H]1[C@@H](O)[C@@H]2[C@H](CC[C@]3(C)[C@@H]([C@H](C)CCc4nnc(C(C)(C)C)s4)CC[C@@H]23)[C@@]2(C)CC[C@@H](O)C[C@@H]12 [Example 17]
  EC50: 100 to 1000 nM
  Efficacy (%): 314%

## CC[C@H]1[C@@H](O)[C@@H]2[C@H](CC[C@]3(C)[C@@H]([C@H](C)CCc4nnc(C5CCCCC5)s4)CC[C@@H]23)[C@@]2(C)CC[C@@H](O)C[C@@H]12 [Example 18]
  EC50: 1000 to 10000 nM
  Efficacy (%): 244%

## CC[C@H]1[C@@H](O)[C@@H]2[C@H](CC[C@]3(C)[C@@H]([C@H](C)CCc4nnc(-c5ccc(C(C)(C)C)cc5)s4)CC[C@@H]23)[C@@]2(C)CC[C@@H](O)C[C@@H]12 [Example 19]
  EC50: 1000 to 10000 nM
  Efficacy (%): 172%

## CC[C@H]1[C@@H](O)[C@@H]2[C@H](CC[C@]3(C)[C@@H]([C@H](C)Cc4nnc(-c5ccc(C(C)(C)C)cc5)o4)CC[C@@H]23)[C@@]2(C)CC[C@@H](O)C[C@@H]12 [Example 20]
  EC50: 1000 to 10000 nM
  Efficacy (%): 87%

— patent US10323061B2, “Heteroaryl containing bile acid analogs as FXR/TGR5 agonists and methods of use thereof” (ENANTA PHARMACEUTICALS, INC., priority 2016, dated 2019)
